Experiment [1] has as its target human GABAA α5β2γ1 receptor (Homo sapiens (Human), UniProt P31644+Q8N1C3). Put plainly: Radioligand binding assay, competition for [3H]RO7239181, γ1-containing GABAA subtype α5β2γ1. As for the experimental part:
The affinity of compounds at GABAA γ1 subunit-containing receptors was measured by competition for [^3H]RO7239181 (67.3 Ci/mmol; Roche) binding to membranes from HEK293F cells (ThermoFisher R^79007) expressing human (transiently transfected) receptors of composition α5β2γ1, α2β2γ1, α1β2γ1. For better protein expression of the α2 subunit-containing receptors, the 28 amino acid long signal peptide (Met1 to Ala28)of the human GABAA α2 subunit was substituted by the 31 amino acid long signal peptide (Met1 to Ser31) of human GABAA α5 subunit.
(§1) Harvested pellets from HEK293F cells expressing the different GABAA receptor subtypes were resuspended in Mannitol Buffer pH 7.2-7.4 (Mannitol 0.29M, Triethylamine 10 mM, Acetic acid 10 mM, EDTA 1 mM plus protease inhibitors (20 tablets Complete, Roche Diagnostics Cat. No. 05 056 489 001 per liter)), washed two times and then resuspended at 1:10 to 1:15 dilution in the same buffer. Cell disruption was performed by stirring the suspension in a Parr vessel #4637 at 435 psi for 15 minutes, and then the suspensions were centrifuged at 1000×g for 15 minutes at 4° C. (Beckman Avanti J-HC: rotor JS-4.2). The supernatant (S1) was transferred in a 21 Schott flask and the pellet (P1) was resuspended with Mannitol Buffer up to 175 ml. The resuspended pellet was transferred into a 250 ml Corning centrifugal beaker and centrifuged at 1500×g for 10 minutes at 4° C. (Beckman Avanti J-HC: rotor JS-4.2). The supernatant (S1) was then transferred in the 21 Schott flask and the pellet was discarded. The supernatants (S1) were centrifuged in 500 ml Beckman polypropylene centrifugal beaker at 15 000×g for 30 minutes at 4° C. (Beckman Avanti J-20 XP: rotor JLA-10.500). The pellet (P2) was resuspended with Mannitol Buffer 1:1 and frozen at −80° C. The supernatant (S2) was centrifuged in 100 ml Beckman polypropylene centrifugal tubes at 48000×g for 50 minutes at 4° C. (Beckman Avanti J-20 XP: rotor JA-18). The supernatant (S3) was discarded and the pellet (P3) was resuspended with 1:1 Mannitol Buffer. The P2 and P3 protein concentration was determined with the BIORAD Standard assay method with bovine serum albumin as standard and measured on the NANO-Drop 1000. The membrane suspension was aliquots (500 μl per tube) and stored at −80° C. until required.
(§2) Membrane homogenates were resuspended and polytronised (Polytron PT1200E Kinematica AG) in Potassium Phosphate 10 mM, KCl 100 mM binding buffer at pH 7.4 to a final assay concentration determined with a previous experiment.
Radioligand binding assays were carried out in a volume of 200 μL (96-well plates) which contained 100 μL of cell membranes, [3H]RO7239181 at a concentration of 1.5 nM (α5β2γ1) or 20-30 nM (α1β2γ1, α2β2γ1) and the test compound in the range of [0.3-1000]×10^−9 M. Nonspecific binding was defined by 10×10^−6 (α5β2γ1) and 30×10^−6 M RO7239181 and typically represented less than 5% (α5β2γ1) and less than 20% (α1β2γ1, α2β2γ1) of the total binding. Assays were incubated to equilibrium for 1 hour at 4° C. and then, membranes were filtered onto unifilter (96-well white microplate with bonded GF/C filters preincubated 20-50 minutes in 0.3% Polyethylenimine) with a Filtermate 196 harvester (Packard BioScience) and washed 4 times with cold Potassium Phosphate 10 mM pH 7.4, KCl 100 mM binding buffer. After anhydrousing, filter-retained radioactivity was detected by liquid scintillation counting. Ki values were calculated using Excel-Fit (Microsoft) and are the means of two determinations.

Experiment [2] concerns the target human GABAA α1β2γ1 receptor (Homo sapiens (Human), UniProt P14867+Q8N1C3). In words: Radioligand binding assay, competition for [3H]RO7239181, γ1-containing GABAA subtype α1β2γ1. Particulars: membranes of HEK293F cells, [3H]RO7239181 20-30 nM, mean of two determinations. The protocol: (§3) The affinity of compounds at GABAA γ1 subunit-containing receptors was measured by competition for [^3H]RO7239181 (67.3 Ci/mmol; Roche) binding to membranes from HEK293F cells (ThermoFisher R^79007) expressing human (transiently transfected) receptors of composition α5β2γ1, α2β2γ1, α1β2γ1.
as §1, §2
(§4) Assays were incubated to equilibrium for 1 hour at 4° C. and then, membranes were filtered onto unifilter (96-well white microplate with bonded GF/C filters preincubated 20-50 minutes in 0.3% Polyethylenimine) with a Filtermate 196 harvester (Packard BioScience) and washed 4 times with cold Potassium Phosphate 10 mM pH 7.4, KCl 100 mM binding buffer. After anhydrousing, filter-retained radioactivity was detected by liquid scintillation counting. Ki values were calculated using Excel-Fit (Microsoft) and are the means of two determinations.

Experiment [3] deals with human GABAA α2β2γ1 receptor (Homo sapiens (Human), UniProt P47869+Q8N1C3). Put plainly: Radioligand binding assay, competition for [3H]RO7239181, γ1-containing GABAA subtype α2β2γ1. To be noted: for γ2/γ1 Selectivity Ratio: Ki α1β3γ2 (nM)/Ki α2β2γ1 (nM); for LogSel: Log[Ki α1β3γ2 (nM)/Ki α2β2γ1 (nM)]. As for the experimental part:
as §3, §1, §2, §4

The mark [4] stands for this setting: membranes of HEK293F cells, [3H]RO7239181 1.5 nM, mean of two determinations, read-out: Ki h-GABAA α5β2γ1.
[5] abbreviates: Table 2, membranes of HEK293F cells, [3H]RO7239181, read-out: Ki h-GABAA α2β2γ1.
Setting [6] is: membranes of HEK293F cells, [3H]RO7239181 20-30 nM, mean of two determinations, read-out: Ki h-GABAA α2β2γ1.
[7] abbreviates: read-out: Ki h-GABAA α2β2γ1, Table 2, membranes of HEK293F cells, [3H]RO7239181.

Like-named read-outs stand apart in the source and are kept apart here.

Usually Ki stands for a measure of affinity in units of concentration, obtained from inhibition or displacement. Take `CNC(=O)c1cn2c(nc1=O)[C@H](C)N=C(c1c(F)cccc1F)c1c-2ccc(C(F)(F)F)c1Cl` [Example 27, (5S)-8-chloro-7-(2,6-difluorophenyl)-N,5-dimethyl-3-oxo-9-(trifluoromethyl)-5H-pyrimido[1,2-a][1,4]benzodiazepine-2-carboxamide]: the Ki in experiment [1] (setting [4]) is 6.2 nM; in experiment [2], 67.8 nM; in experiment [3] (setting [5]), 30.8 nM; in experiment [3] (setting [6]), 30.8 nM. Moreover, in experiment [3], the “γ2/γ1 Selectivity Ratio” value is listed as 292.9. The compound also registered a LogSel in experiment [3] of 2.47.

For the compound `O=c1ccn2c(n1)CN=C(c1ncccc1F)c1c-2ccc(Cl)c1Cl` [Example 3, 8,9-dichloro-7-(3-fluoro-2-pyridyl)-5H-pyrimido[1,2-a][1,4]benzodiazepin-3-one], the Ki in experiment [1] came out at 10.3 nM; in experiment [2], 183 nM; in experiment [3], 112 nM; in experiment [3] (setting [7]), 112 nM. Further, the “γ2/γ1 Selectivity Ratio” value in experiment [3] is reported as 19.6. This compound registered a LogSel in experiment [3] of 1.29.

Regarding `O=c1ccn2c(n1)CN=C(c1ccccc1F)c1c-2ccc(Cl)c1Cl` [Example 1, 8,9-dichloro-7-(2-fluorophenyl)-5H-pyrimido[1,2-a][1,4]benzodiazepin-3-one], the inhibition constant (Ki) in experiment [1] is 3.8 nM; in experiment [2], 63.4 nM; in experiment [3] it was 57.9 nM; in experiment [3] (setting [7]), 57.9 nM. Moreover, the “γ2/γ1 Selectivity Ratio” value in experiment [3] is on record as 12.4. This compound also returned a LogSel in experiment [3] of 1.09.

For `CCO/C=C/c1cn2c(nc1=O)[C@H](C)N=C(c1c(F)cccc1F)c1c-2ccc(Cl)c1Cl` [Example 19, (5S)-8,9-dichloro-7-(2,6-difluorophenyl)-2-[(E)-2-ethoxyvinyl]-5-methyl-5H-pyrimido[1,2-a][1,4]benzodiazepin-3-one], the Ki in experiment [1] (setting [4]) came out at 4.9 nM; in experiment [3] (setting [5]), 24.1 nM; in experiment [3] (setting [6]) it was 24.1 nM. The “γ2/γ1 Selectivity Ratio” value in experiment [3] is reported as 48.4. Further, the LogSel in experiment [3] is recorded as 1.68.

On to `CCO/C=C/c1cn2c(nc1=O)[C@H](C)N=C(c1c(F)cccc1F)c1c-2ccc(C(F)(F)F)c1Cl` [Example 18, (5S)-8-chloro-7-(2,6-difluorophenyl)-2-[(E)-2-ethoxyvinyl]-5-methyl-9-(trifluoromethyl)-5H-pyrimido[1,2-a][1,4]benzodiazepin-3-one], for which the Ki in experiment [1] (setting [4]) is 9.7 nM; in experiment [3] (setting [5]), 60.6 nM; in experiment [3] (setting [6]) it was 60.6 nM. In experiment [3], the “γ2/γ1 Selectivity Ratio” value amounted to 104.6. Also, the LogSel in experiment [3] came to 2.02.

As to `CCc1cn2c(nc1=O)[C@H](C)N=C(c1c(F)cccc1F)c1c-2ccc(C(F)(F)F)c1Cl` [Example 11, (5S)-8-chloro-7-(2,6-difluorophenyl)-2-ethyl-5-methyl-9-(trifluoromethyl)-5H-pyrimido[1,2-a][1,4]benzodiazepin-3-one], the Ki in experiment [1] came to 4.1 nM; in experiment [2] it was 167 nM; in experiment [3], 40.1 nM; in experiment [3] (setting [7]), 40.1 nM. For the same compound, the “γ2/γ1 Selectivity Ratio” value in experiment [3] was 151.9. Further, the LogSel in experiment [3] is reported as 2.18.

`CCOCCc1cn2c(nc1=O)CN=C(c1c(F)cccc1F)c1c-2ccc(Cl)c1Cl` [Example 24, 8,9-dichloro-7-(2,6-difluorophenyl)-2-(2-ethoxyethyl)-5H-pyrimido[1,2-a][1,4]benzodiazepin-3-one]: the inhibitory constant (Ki) in experiment [1] (setting [4]) was found to be 3 nM; in experiment [3] (setting [5]), 30.3 nM; in experiment [3] (setting [6]), 30.3 nM. Moreover, the “γ2/γ1 Selectivity Ratio” value in experiment [3] amounted to 60.1. The compound also returned a LogSel in experiment [3] of 1.78.

For `C[C@@H]1N=C(c2c(F)cccc2F)c2c(ccc(C(F)(F)F)c2Cl)-n2cc(C(=O)NC3CC3)c(=O)nc21` [Example 28, (5S)-8-chloro-N-cyclopropyl-7-(2,6-difluorophenyl)-5-methyl-3-oxo-9-(trifluoromethyl)-5H-pyrimido[1,2-a][1,4]benzodiazepine-2-carboxamide], the inhibition constant Ki was determined as 7.4 nM in experiment [1] (setting [4]), 33 nM in experiment [3] (setting [5]) and 33 nM in experiment [3] (setting [6]). Moreover, the “γ2/γ1 Selectivity Ratio” value in experiment [3] was 338.4. In experiment [3], the LogSel was 2.53.

`CCOCCc1cn2c(nc1=O)[C@H](C)N=C(c1c(F)cccc1F)c1c-2ccc(Cl)c1Cl` [Example 21, (5S)-8,9-dichloro-7-(2,6-difluorophenyl)-2-(2-ethoxyethyl)-5-methyl-5H-pyrimido[1,2-a][1,4]benzodiazepin-3-one]: the inhibition constant Ki in experiment [1] (setting [4]) is 3.4 nM; in experiment [3] (setting [5]) it was 23.3 nM; in experiment [3] (setting [6]), 23.3 nM. Further, the “γ2/γ1 Selectivity Ratio” value in experiment [3] stood at 61.6. In experiment [3], this compound showed a LogSel of 1.79.

With `CCO/C=C/c1cn2c(nc1=O)CN=C(c1c(F)cccc1F)c1c-2ccc(Cl)c1Cl` [Example 22, 8,9-dichloro-7-(2,6-difluorophenyl)-2-[(E)-2-ethoxyvinyl]-5H-pyrimido[1,2-a][1,4]benzodiazepin-3-one], the Ki in experiment [1] (setting [4]) was determined as 2.1 nM; in experiment [3] (setting [5]) it was 15.3 nM; in experiment [3] (setting [6]), 15.3 nM. For the same compound, the “γ2/γ1 Selectivity Ratio” value in experiment [3] turned out to be 73.8. In experiment [3], this compound registered a LogSel of 1.87.

Take `CCO/C=C/c1cn2c(nc1=O)CN=C(c1c(F)cccc1F)c1c-2ccc(C(F)(F)F)c1Cl` [Example 25, 8-chloro-7-(2,6-difluorophenyl)-2-[(E)-2-ethoxyvinyl]-9-(trifluoromethyl)-5H-pyrimido[1,2-a][1,4]benzodiazepin-3-one]: the Ki is 9.4 nM in experiment [1] (setting [4]), 47.9 nM in experiment [3] (setting [5]) and 47.9 nM in experiment [3] (setting [6]). In experiment [3], the “γ2/γ1 Selectivity Ratio” value was 306.4. Further, in experiment [3], the LogSel was 2.49.

`CCOCCc1cn2c(nc1=O)[C@H](C)N=C(c1c(F)cccc1F)c1c-2ccc(C(F)(F)F)c1Cl` [Example 20, (5S)-8-chloro-7-(2,6-difluorophenyl)-2-(2-ethoxyethyl)-5-methyl-9-(trifluoromethyl)-5H-pyrimido[1,2-a][1,4]benzodiazepin-3-one]: the Ki in experiment [1] (setting [4]) amounted to 6.6 nM; in experiment [3] (setting [5]), 101 nM; in experiment [3] (setting [6]), 101 nM. In experiment [3], the “γ2/γ1 Selectivity Ratio” value stood at 88.1. The LogSel in experiment [3] stood at 1.95.

On to `CCOCCc1cn2c(nc1=O)CN=C(c1c(F)cccc1F)c1c-2ccc(C(F)(F)F)c1Cl` [Example 26, 8-chloro-7-(2,6-difluorophenyl)-2-(2-ethoxyethyl)-9-(trifluoromethyl)-5H-pyrimido[1,2-a][1,4]benzodiazepin-3-one], for which the values for the inhibitory constant (Ki) in experiment [1] (setting [4]), in experiment [3] (setting [5]) and in experiment [3] (setting [6]) were 21.6 nM, 75 nM and 75 nM, respectively. Besides, in experiment [3], the “γ2/γ1 Selectivity Ratio” value came to 400.1. Also, in experiment [3], the LogSel came to 2.60.

Source of the values: patent publication US20240287082A1, “NEW BENZODIAZEPINE DERIVATIVES AS GABA A GAMMA1 PAM” (Hoffmann-La Roche Inc., priority 2021, published 2024).
